Source: US10328161B2, “Luciferin derivatives from bicyclic reactants and aminothiol derivatives and methods of use thereof” (The Regents of the University of California, priority 2012, dated 2019)

Tests used:
[1] = Selectivity assay for PCL-2: panel of various ROS; assay type: biochemical
Experimental: (§1) Millipore water was used to prepare all aqueous solutions. Luciferase (100 μg/mL) in 50 mM Tris buffer, pH 7.4, with 10 mM MgCl2, 0.1 mM ZnCl2, and 2 mM ATP was added to selectivity assay samples (described below) to determine the relative amount of luciferin formed during incubation. Measurements for bioluminescent assays were performed at 37° C. and were recorded using a Molecular Devices SpectraMax M2 plate reader (Sunnyvale, Calif.). Samples for bioluminescent measurements were placed in white, opaque 96-well plates, which were purchased from Corning Inc. (Corning, N.Y.). ATP was purchased from MP Biomedicals (Solon, Ohio) or Sigma-Aldrich (St. Louis, Mo.), and luciferase was purchased from Promega (Madison, Wis.). Caspase enzymes were purchased from Sigma-Aldrich (St. Louis, Mo.), and caspase inhibitors were purchased from MP Biomedicals (Solon, Ohio).
(§2) Various ROS (100 μM) were administered to PCL-2 or HCBT (5 μM) in Tris buffer (50 mM, pH 7.4) with or without 10 mM MgCl2 and 0.1 mM ZnCl2. […] After an additional 15 min incubation, 100 μL of a Tris buffer (50 mM, pH 7.4) containing luciferase (100 μg/mL), 10 mM MgCl2, 0.1 mM ZnCl2, and 2 mM ATP was added to 100 μL of the PCL-2 or HCBT solutions and the bioluminescent signal was detected.

PC3M-luc cells [2] = experiment: Signal produced from endogenous L-cysteine in PC3M-luc cells; assay type: cell-based; conditions: HCBT alone 0-50 μM
Experimental: (§3) A Xenogen IVIS Spectrum instrument (Caliper Life Sciences, Hopkinton, Mass.) was used for bioluminescent imaging in all cellular experiments. PC3M-luc cells (kindly provided by Chris Contag, Stanford University) were cultured in Dulbecco's Modified Eagle Medium (DMEM) containing 10% Fetal Bovine Serum (FBS). Prior to assaying, cells were passed and plated (1.3-1.5×10^4 cells/well) in black 96-well plates with clear bottoms (Becton Dickinson and Company, Franklin Lakes, N.J.). Once the cells were ca. 95% confluent, reagents were added for bioluminescent assays.
PC3M-luc cells prepared as described above were washed with HBSS (25 mM glucose) prior to addition of HCBT and D-cysteine (0-50 μM, 1% DMSO) or HCBT alone (0-50 μM, 1% DMSO) in HBSS (25 mM glucose). The plate was immediately imaged for 2 h to determine the peak bioluminescent signal produced.

PC3M-luc cells [3] = experiment: Comparison of in situ luciferin formation and luciferin in PC3M-luc cells (intact and lysed); assay type: cell-based
Experimental: as §3
PC3M-luc cells prepared as described above were washed with HBSS (25 mM glucose) prior to addition of HCBT and D-cysteine (0-500 μM, 1% DMSO) or luciferin (0-500 μM, 1% DMSO) in HBSS (25 mM glucose). For experiments with lysed cells, 100 μL Glo lysis buffer (Promega, Madison, Wis.) was incubated with the PC3M-luc cells for 5 min prior to addition of HCBT and D-cysteine or luciferin. The plates were immediately imaged for 2 h to determine the peak bioluminescent signal produced.

FVB-luc^+ mice [4] = experiment: Signal produced from endogenous L-cysteine in mice; assay type: in vivo; conditions: HCBT 0.05 μmol IP without D-cysteine
Description: (§4) A Xenogen IVIS Spectrum instrument (Caliper Life Sciences, Hopkinton, Mass.) was used for bioluminescent imaging in all animal experiments. Mice were anesthetized prior to injection and during imaging via inhalation of isoflurane. Phosphate Buffered Saline (PBS) was purchased from Thermo Fisher Scientific (Waltham, Mass.), and saline (0.9%) was made from sodium chloride and Millipore water. Isoflurane was purchased from Phoenix Pharmaceuticals, Inc. (St. Joseph, Mo.), and pharmaceutical grade DMSO was purchased from Sigma-Aldrich (St. Louis, Mo.). Medical grade oxygen was purchased from Praxair (Danbury, Conn.).
(§5) FVB-luc^+ (FVB-Tg(CAG-luc,-GFP)L2G85Chco/J) mice were bred at UC Berkeley, and were single or group-housed on a 12:12 light-dark cycle at 22° C. with free access to food and water. All studies were approved and performed according to the guidelines of the Animal Care and Use Committee of the University of California, Berkeley.
Unshaven, male FVB-luc+ mice were anesthetized with isoflurane and injected IP with D-cysteine (0.05 μmol, in 20 μL of PBS) or vehicle (20 μL PBS). After 2 min, mice were injected IP with HCBT (0.05 μmol in 50 μL of 1:1 DMSO:PBS). Following injections, mice were imaged with an IVIS Spectrum.

PC3M-luc cells [5] = experiment: Lifetime of HCBT and D-cysteine in PC3M-luc cells; assay type: cell-based; conditions: 100 μM, 30 min incubation, wash, complementary reagent after 0-60 min
Experimental: as §3
The medium was removed from PC3M-luc cells prepared as described above, and HCBT (100 μM, 1% DMSO) or D-cysteine (100 μM, 1% PBS) in DMEM (-FBS) was added. After a 30 min incubation, the HCBT or D-cysteine was removed, the cells were washed with DMEM (-FBS), and fresh DMEM was added. After 0, 15, 30, 45, or 60 min, the second component of luciferin, D-cysteine (100 μM final concentration, 1% PBS) or HCBT (100 μM final concentration, 1% DMSO) in HBSS (25 mM glucose) was added, and the plate was immediately imaged for 2 h to determine the peak bioluminescent signal produced.

[6] = Concentration dependence of PCL-2 in aqueous solution; assay type: biochemical
Experimental: as §1
PCL-2 was incubated in Tris buffer (50 mM, pH 7.4) with various concentrations of H2O2 for 60 min prior to the addition of catalase (0.4 mg/mL), dithiothreitol (1 mM) and D-cysteine (20 μM). After an additional 15 min incubation, 100 μL of a Tris buffer (50 mM, pH 7.4) containing luciferase (100 μg/mL), 10 mM MgCl2, 0.1 mM ZnCl2, and 2 mM ATP was added to 100 μL of the PCL-2 solutions and the bioluminescent signal was detected.

PC3M-luc cells [7] = experiment: Concentration dependence of PCL-2 with PC3M-luc cells; assay type: cell-based; conditions: PCL-2 25 μM, D-cysteine 25 μM
Experimental: as §3
The medium was removed from PC3M-luc cells prepared as described above, and PCL-2 (25 μM, 2.5% final DMSO concentration), D-cysteine (25 μM), and H2O2 (0-100 μM final concentrations) in DMEM (-FBS) were added. The plate was immediately imaged for 2 h to determine the peak bioluminescent signal produced from PCL-2.

[8] = Kinetic analysis of the PCL-2 and H2O2 reaction; assay type: physicochemical; conditions: PCL-2 10 μM, H2O2 1, 2.5 or 5 mM, Tris buffer pH 8.5
Experimental: H2O2 (1, 2.5, or 5 mM) was added to PCL-2 (10 μM) in Tris buffer (pH 8.5) and absorbance measurements were recorded every 15-30 seconds over 5-20 minutes to determine the second order rate constant for the reaction. Measurements were taken at pH 8.5 to distinguish the HCBT peak, which shifts from 321 nm to 379 nm when it is deprotonated, from the PCL-2 peak (321 nm).

[9] = Selectivity assay for PCL-2: response to H2O2; assay type: biochemical; conditions: PCL-2 5 μM, H2O2 100 μM, 5-60 min, then D-cysteine and luciferase
Experimental: as §1, §2

[10] = Lipopolysaccharide inflammation model, H2O2 detection with PCL-2; assay type: in vivo, mice; conditions: LPS 3 mg/kg IP 6 h before PCL-2 and D-cysteine 0.05 μmol each
Description: as §4, §5
Unshaven, female FVB-luc^+ mice, aged 2-5 months, were anesthetized with isoflurane and injected IP with lipopolysaccharides (LPS, 3 mg/kg in 50 μL of saline) or saline (50 μL). For studies with PCL-2 alone, mice were injected IP with either apocynin (10 mg/kg in 20 μL of DMSO) or DMSO (20 μL) 6 h after LPS injection. […]

[11] = Exogenous H2O2 experiments in mice; assay type: in vivo
Description: as §4, §5
Unshaven, male FVB-luc^+ mice were anesthetized with isoflurane and injected IP with a mixture of PCL-2 and D-cysteine (0.05 μmol each, in 50 μL of 1:1 DMSO:PBS), followed immediately by an IP injection of H2O2 (0-4.5 μmol in 100 μL of PBS). Control mice were injected IP with a mixture of HCBT and D-cysteine (0.01 μmol each, in 50 μL of 1:1 DMSO:PBS) immediately prior to H2O2 (4.5 μmol in 100 μL of PBS). Following injections, mice were imaged with an IVIS Spectrum.

FVB-luc^+ mice [12] = experiment: Comparison of in situ luciferin formation and luciferin in mice; assay type: in vivo; conditions: 0.05 μmol luciferin IP
Description: A Xenogen IVIS Spectrum instrument (Caliper Life Sciences, Hopkinton, Mass.) was used for bioluminescent imaging in all animal experiments. Mice were anesthetized prior to injection and during imaging via inhalation of isoflurane. Phosphate Buffered Saline (PBS) was purchased from Thermo Fisher Scientific (Waltham, Mass.), and saline (0.9%) was made from sodium chloride and Millipore water. Isoflurane was purchased from Phoenix Pharmaceuticals, Inc. (St. Joseph, Mo.), and pharmaceutical grade DMSO was purchased from Sigma-Aldrich (St. Louis, Mo.). Medical grade oxygen was purchased from Praxair (Danbury, Conn.). FVB-luc^+ (FVB-Tg(CAG-luc,-GFP)L2G85Chco/J) mice were bred at UC Berkeley, and were single or group-housed on a 12:12 light-dark cycle at 22° C. with free access to food and water. All studies were approved and performed according to the guidelines of the Animal Care and Use Committee of the University of California, Berkeley. Unshaven, male FVB-luc^+ mice were anesthetized with isoflurane and injected IP with D-[…].05 or 0.5 μmol, in 20 μL of PBS) or vehicle (20 μL PBS). After 2 min, mice were injected IP with HCBT (0.05 or 0.5 μmol in 50 μL of 1:1 DMSO:PBS) or luciferin (0.05 μmol in 50 μL of 1:1 DMSO:PBS). Following injections, mice were imaged with an IVIS Spectrum.

Compound: N#Cc1nc2ccc(O)cc2s1 [HCBT, 2-Cyano-6-hydroxybenzothiazole]
- bioluminescence turn-on with the same panel of ROS ([1]; HCBT 5 μM, ROS 100 μM incl. H2O2, 60 min): no bioluminescence turn-on
- bioluminescence from HCBT and endogenous L-cysteine compared to HCBT with D-cysteine (PC3M-luc cells [2]): negligible production of bioluminescence
- permeability across the cell membrane compared to luciferin (PC3M-luc cells [3]; inferred from intact versus lysed PC3M-luc cells): increased permeability
- bioluminescent signal from HCBT and endogenous L-cysteine compared to D-cysteine present (FVB-luc^+ mice [4]): negligible
- cellular lifetime: signal as time between removal and addition of the complementary reagent increases (PC3M-luc cells [5]): decrease in luminescence

Compound: N#Cc1nc2ccc(OCc3ccc(B(O)O)cc3)cc2s1 [PCL-2, 4-((2-Cyanobenzo[d]thiazol-6-yloxy)methyl)phenylboronic acid]
- range of linear response to H2O2 ([6]; PCL-2 5 μM, 60 min, aqueous solution): 1-100 μM H2O2
- detection limit for H2O2 ([6]; in vitro summary statement): low micromolar
- range of linear response to H2O2 in cellulo (PC3M-luc cells [7]): 0-100 μM H2O2
- response to other ROS ([1]; 5 μM probe, ROS 100 μM (TBHP, hypochlorite, NO, OH, OtBu, O2-)): negligible response
- second-order rate constant k for the PCL-2 and H2O2 reaction [8]: 2.7 M⁻¹ s⁻¹
- increase in bioluminescence in the presence of H2O2 [9]: ca. 50 fold
- turn-on in response to LPS stimulation [10]: ca. 3.7 fold
- Turn-on ([11]; H2O2 0.5 μmol, PCL-2 0.05 μmol): 2.8-fold
- detection limit for H2O2 in vivo ([11]; IP, FVB-luc^+ mice, optimized imaging conditions for each probe): ca. 0.5 μmol

Compound: O=C(O)[C@H]1CSC(c2nc3ccc(O)cc3s2)=N1 [luciferin]
- brightness of signal relative to 0.05 μmol HCBT/D-cysteine (FVB-luc^+ mice [12]): ca. 40 fold
- bioluminescent signal, luciferin versus HCBT/D-cysteine (PC3M-luc cells [3]; intact PC3M-luc cells, lower concentrations (0-500 μM range)): greater signal than HCBT/D-cysteine
